Results published in patent publication US12331040B2 (Karyopharm Therapeutics Inc., priority 2013, dated 2025).
pIC50: −log10 of the molar value. Where two headings read alike, the source gives them in different places.

Assays:
Format in all cases: cell-based
MDA-MB-468 cells = experiment: MTT cell proliferation assay; settings: Homo sapiens
Method: (§1) The MTT cell proliferation assay was used to study the cytotoxic properties of the compounds. The assay was performed according to the method described by Roche Molecular Biochemicals, with minor modifications. The assay is based on the cleavage of the tetrazolium salt, MTT, in the presence of an electron-coupling reagent. The water-insoluble formazan salt produced must be solubilized in an additional step. Cells grown in a 96-well tissue culture plate were incubated with the MTT solution for approximately 4 hours. After this incubation period, a water-insoluble formazan dye formed. After solubilization, the formazan dye was quantitated using a scanning multi-well spectrophotometer (ELISA reader). […] The cells were seeded at 5,000-10,000 cells in each well of 96-well plate in 100 μL of fresh culture medium and were allowed to attach overnight. The stock solutions of the compounds were diluted in 100 μL cell culture medium to obtain eight concentrations of each test compound, ranging from 1 nM to 30 μM. […] All optical densities were measured at 490 nm using a Vmax Kinetic Microplate Reader (Molecular Devices). In most cases, the assay was performed in duplicate and the results were presented as a mean percent inhibition to the negative control±SE. The following formula was used to calculate the percent of inhibition: Inhibition (%)=(1−(ODo/OD))×100.
(§2) The M24 cell line is derived from human melanoma cells. The U2OS cell line is a human osteosarcoma cell line expressing wild type p53 and Rb, but lacking p16. The MM1S cell line is a multiple myeloma cell line; the parent cell line, MM.1, was established from peripheral blood of a multiple myeloma patient who had become resistant to steroid-based therapy. The RPMI8226 cell line is derived from human B lymphocyte cells. NHDF cells are normal human dermal fibroblast cells. The MRC-5 cell line is derived from normal lung tissue of a fetus. The PC3 cell line is a human prostate cancer cell line. The DU-145 cell line is a human prostate cancer cell line. The MDA-MB-231 cell line is a human breast adenocarcinoma cell line. The MDA-MB-468 cell line is a human breast carcinoma cell line. HL-60 cells are human promyelocytic leukemia cells. Hep G2 cells are human hepatocellular carcinoma cells. HEP 3B cells are human hepatocellular carcinoma cells. The DLD-1 cell line is a colorectal adenocarcinoma cell line. The HCT-15 cell line is a human colon carcinoma cell line. The Colo-205 cell line is derived from a human adenocarcinoma of the colon. The LoVo cell line is a human colon adenocarcinoma cell line.

U2OS cells = experiment: MTT cell proliferation assay; settings: Homo sapiens
Method: as §1, §2

[1] = MTT cell proliferation assay; settings: human, MRC-5 cells (normal fetal lung cell line); MRC-5 cells; 72-hour MTT
Method: as §1, §2

LoVo cells = experiment: MTT cell proliferation assay; settings: Homo sapiens
Method: as §1, §2

DLD-1 cells = experiment: MTT cell proliferation assay; settings: Homo sapiens
Method: as §1, §2

HCT-15 cells = experiment: MTT cell proliferation assay; settings: Homo sapiens
Method: as §1, §2

NHDF cells = experiment: MTT cell proliferation assay; settings: Homo sapiens
Method: as §1, §2

DU-145 cells = experiment: MTT cell proliferation assay; settings: Homo sapiens
Method: as §1, §2

Colo-205 cells = experiment: MTT cell proliferation assay; settings: Homo sapiens
Method: as §1, §2

MM1S cells = experiment: MTT cell proliferation assay; settings: Homo sapiens, MM1.S
Method: as §1, §2

MDA-MB-231 cells = experiment: MTT cell proliferation assay; settings: Homo sapiens
Method: as §1, §2

PC3 cells = experiment: MTT cell proliferation assay; settings: Homo sapiens, PC-3
Method: as §1, §2

MS751 cells = experiment: MTT cell proliferation assay; settings: Homo sapiens
Procedure, shortened: (§3)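 Cytotoxicity was measured by MTT: OD490 of the solubilized formazan after roughly 4 h with MTT reagent, reported as mean percent inhibition relative to the negative control. Test compounds covered eight concentrations between 1 nM and 30 μM, added to 5,000–10,000 cells per well that had attached overnight.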

3T3 cells = experiment: MTT cell proliferation assay; settings: Mus musculus
Procedure, shortened: as §3

Z138 cells = experiment: MTT cell proliferation assay; settings: Homo sapiens
Procedure, shortened: as §3

[2] = MDA-MB-468 cells, 72-hour MTT, read-out: MDA-MB-468 MTT IC50
[3] = U2OS cells, 72-hour MTT, read-out: U2OS MTT IC50
[4] = LoVo cells, 72-hour MTT, read-out: LoVo MTT IC50
[5] = DLD-1 cells, 72-hour MTT, read-out: DLD-1 MTT IC50
[6] = HCT-15 cells, 72-hour MTT, read-out: HCT-15 MTT IC50
[7] = NHDF cells, 72-hour MTT, read-out: NHDF MTT IC50
[8] = DU-145 cells, 72-hour MTT, read-out: DU-145 MTT IC50
[9] = Colo-205 cells, 72-hour MTT, read-out: Colo-205 MTT IC50
[10] = MM1S cells, 72-hour MTT, read-out: MM1S MTT IC50
[11] = MDA-MB-231 cells, 72-hour MTT, read-out: MDA-MB-231 MTT IC50
[12] = PC3 cells, 72-hour MTT, read-out: PC3 MTT IC50
[13] = MS751, 72 h, MS751 cells, 72-hour MTT, read-out: MS751 MTT IC50
[14] = MS751, MS751 cells, approximately 64-72 hours incubation, read-out: MTT Assay IC50 MS-751
[15] = NIH3T3, 72-hour MTT, read-out: 3T3 MTT IC50
[16] = NIH3T3, approximately 64-72 hours incubation, read-out: MTT Assay IC50 3T3
[17] = Z-138, 72 h, Z-138 cells, 72-hour MTT, read-out: Z-138 MTT IC50
[18] = Z-138, Z138 cells, approximately 64-72 hours incubation, read-out: MTT Assay IC50 Z-138
[19] = MDA-MB-468 cell line, read-out: MTT Assay IC50, MDA-MB-468
[20] = U2OS cell line, read-out: MTT Assay IC50, U2OS
[21] = LoVo cell line, read-out: MTT Assay IC50, LoVo
[22] = DLD-1 cell line, read-out: MTT Assay IC50, DLD-1
[23] = HCT-15 cell line, read-out: MTT Assay IC50, HCT-15
[24] = NHDF cell line, read-out: MTT Assay IC50, NHDF
[25] = DU-145 cell line, read-out: MTT Assay IC50, DU-145
[26] = Colo-205 cell line, read-out: MTT Assay IC50, Colo-205
[27] = MM1S cell line, read-out: MTT Assay IC50, MM1S
[28] = MDA-MB-231 cell line, read-out: MTT Assay IC50, MDA-MB-231

Structure (SMILES): Nc1ccc(/C=C/C(=O)NCc2cc3cc(-c4ccc(C(=O)N5CCC(F)(F)CC5)cn4)cc(C(F)(F)F)c3o2)cn1 [Compound 585, (E)-3-(6-aminopyridin-3-yl)-N-((5-(5-(4,4-difluoropiperidine-1-carbonyl)pyridin-2-yl)-7-(trifluoromethyl)benzofuran-2-yl)methyl)acrylamide]
- pIC50 (MDA-MB-468 cells; [2]): 6.70
- pIC50 (U2OS cells; [3]): 7.22
- IC50 at 72 h [1]: 0.13 µM
- pIC50 (LoVo cells; [4]): 6.59
- pIC50 (DLD-1 cells; [5]): 6.03
- pIC50 (HCT-15 cells; [6]): 6.57
- pIC50 (NHDF cells; [7]): 5.24
- pIC50 (DU-145 cells; [8]): 5.31
- pIC50 (Colo-205 cells; [9]): 6.77
- pIC50 (MM1S cells; [10]): 7.05
- pIC50 (MDA-MB-231 cells; [11]): 5.95
- pIC50 (PC3 cells; [12]): 6.85
- pIC50 (MS751 cells; [13]): 7.00
- pIC50 (MS751 cells; [14]): > 7.00
- pIC50 (3T3 cells; [15]): < 5.00
- pIC50 (3T3 cells; [16]): < 5.00
- pIC50 (Z138 cells; [17]): 7.70
- pIC50 (Z138 cells; [18]): > 7.00

Structure (SMILES): Nc1ccc(/C=C/C(=O)NCc2cc3cc(-c4ccc(C(=O)N5CCOCC5)cc4)cc(C(F)(F)F)c3o2)cn1 [Compound 510, (E)-3-(6-aminopyridin-3-yl)-N-((5-(4-(morpholine-4-carbonyl)phenyl)-7-(trifluoromethyl)benzofuran-2-yl)methyl)acrylamide]
- pIC50 (MDA-MB-468 cells; [19]): > 7.00
- pIC50 (MDA-MB-468 cells; [2]): 7.52
- pIC50 (U2OS cells; [20]): > 7.00
- pIC50 (U2OS cells; [3]): 8.10
- IC50 at 72 h [1]: 0.05 µM
- pIC50 (LoVo cells; [21]): 5.30 to 7.00
- pIC50 (LoVo cells; [4]): 6.64
- pIC50 (DLD-1 cells; [22]): 5.30 to 7.00
- pIC50 (DLD-1 cells; [5]): 6.02
- pIC50 (HCT-15 cells; [23]): 5.30 to 7.00
- pIC50 (HCT-15 cells; [6]): 5.90
- pIC50 (NHDF cells; [24]): > 7.00
- pIC50 (NHDF cells; [7]): 7.10
- pIC50 (DU-145 cells; [25]): 5.30 to 7.00
- pIC50 (DU-145 cells; [8]): 5.83
- pIC50 (Colo-205 cells; [26]): 5.30 to 7.00
- pIC50 (Colo-205 cells; [9]): 6.80
- pIC50 (MM1S cells; [27]): > 7.00
- pIC50 (MM1S cells; [10]): 7.05
- pIC50 (MDA-MB-231 cells; [28]): 5.30 to 7.00
- pIC50 (MDA-MB-231 cells; [11]): 5.85
- pIC50 (PC3 cells; [12]): 7.70
- pIC50 (MS751 cells; [13]): 7.00
- pIC50 (MS751 cells; [14]): 5.30 to 7.00
- pIC50 (3T3 cells; [15]): < 5.00
- pIC50 (3T3 cells; [16]): < 5.00
- pIC50 (Z138 cells; [17]): 7.00
- pIC50 (Z138 cells; [18]): > 7.00

Structure (SMILES): Nc1ccc(/C=C/C(=O)NCc2cc3cc(-c4ccc(S(=O)(=O)N5CCOCC5)cc4)cc(Cl)c3o2)cn1 [Compound 504, (E)-3-(6-Aminopyridin-3-yl)-N-((7-chloro-5-(4-(morpholinosulfonyl)phenyl)benzofuran-2-yl)methyl)acrylamide]
- pIC50 (MDA-MB-468 cells; [19]): 5.30 to 7.00
- pIC50 (MDA-MB-468 cells; [2]): 6.00
- pIC50 (U2OS cells; [20]): > 7.00
- pIC50 (U2OS cells; [3]): 7.40
- IC50 at 72 h [1]: 0.02 µM
- pIC50 (LoVo cells; [21]): 5.30 to 7.00
- pIC50 (LoVo cells; [4]): 6.74
- pIC50 (DLD-1 cells; [22]): 5.30 to 7.00
- pIC50 (DLD-1 cells; [5]): 6.96
- pIC50 (HCT-15 cells; [23]): > 7.00
- pIC50 (HCT-15 cells; [6]): 7.10
- pIC50 (NHDF cells; [24]): > 7.00
- pIC50 (NHDF cells; [7]): 7.22
- pIC50 (DU-145 cells; [25]): > 7.00
- pIC50 (DU-145 cells; [8]): 7.10
- pIC50 (Colo-205 cells; [26]): > 7.00
- pIC50 (Colo-205 cells; [9]): 7.10
- pIC50 (MM1S cells; [27]): 5.30 to 7.00
- pIC50 (MM1S cells; [10]): 6.54
- pIC50 (MDA-MB-231 cells; [28]): 5.30 to 7.00
- pIC50 (MDA-MB-231 cells; [11]): 6.66
- pIC50 (PC3 cells; PC3 cell line, read-out: MTT Assay IC50, PC3): > 7.00
- pIC50 (PC3 cells; [12]): 7.30
- pIC50 (MS751 cells; [13]): 7.52
- pIC50 (MS751 cells; [14]): > 7.00
- pIC50 (3T3 cells; [15]): 6.46
- pIC50 (3T3 cells; [16]): 5.30 to 7.00
- pIC50 (Z138 cells; [17]): 8.00
- pIC50 (Z138 cells; [18]): > 7.00
